Here are results for 1 compound from patent EP0791056B1, “LIPID-CLEAVAGE ENZYME COMPLEX” (priority 1994, dated 1996).

The structures appear in SMILES notation.

The test system of one series is stimulierten humanen PBL. The series is described as follows: Intracellular concentrations of AZT and AZT nucleotides (radioimmunoassay) in stimulated human PBL. The conditions noted are these: for maximale intrazelluläre Konzentrationen an freiem AZT: without alkaline phosphatase; for maximale Konzentrationen an AZT und phosphorylierten AZT-Nukleotiden: with alkaline phosphatase. The source says:
Zur Bestimmung der intrazellulären Konzentrationen an AZT und/oder AZT-Nukleotiden nach Inkubation mit AZT-DMDOPE bzw. AZT wurden humane PBL aus "Buffy coat" isoliert.
Hierfür wurde "Buffy-coat" von gesunden Spendern gemischt und durch Zentrifugation in einem isotonischen Medium mit einer Dichte von 1.077 g/ml fraktioniert. Da mononukleare Blutzellen (Monozyten und Lymphozyten) eine geringere Dichte als Erythrozyten und polymorphkernige Granulozyten haben, bilden sie einen Ring an der Grenze zwischen Trennmedium und Probe und können mit Hilfe einer Pipette abgenommen werden. Erythrozyten und polymorphkernige Granulozyten sedimentieren aufgrund ihrer höheren Dichte durch das Medium und lassen sich somit von PBL separieren. Zur Stimulation der Zellproliferation wurde Phytohämaglutinin A (Mukoprotein) (PHA-M), der mitogene Lektinextrakt aus der roten Feuerbohne (Phaseolus vulgaris), eingesetzt. Phytohämagglutinin ist eine Familie von 5 Isolektinen, die als Tetramere vorliegen. Die Untereinheiten bestehen aus einem lymphozytenreaktiven Typ-L und einem erythrozytenreaktiven Typ-E. Typ-L hat eine hohe Affinität zu Lymphozytenoberflächenrezeptoren und ist somit verantwortlich für die mitogenen Eigenschaften. Die Stimulation der Lymphozyten wurde in KPMI 1640 Komplettmedium III für 72 h bei 37 °C und 5 % CO2 durchgeführt. Nach Beendigung der Stimulation wurden zur Erhöhung der Zellzahl die Zellen für weitere 24 h in RPMI 1640 Komplettmedium IV kultiviert.
Zur Bestimmung der intrazellulären Konzentrationen an AZT und AZT-Nukleotiden wurden die Zellen in RPMI 1640 Komplettmedium II mit einer Dichte von 1 x 10^6 Zellen/ml in Gewebekulturflaschen (50 ml/25 cm^2) überführt, und in Anwesenheit von 0.03 bzw. 0.3 µg AZT/ml (Charge 15) und 1 bzw. 10 µg AZT-DMDOPE/ml für 1 - 24 h inkubiert.
Die Kulturen wurden anschließend für 1, 3, 6 und 24 h bei 37 °C und 5 % CO2 inkubiert. AZT und seine Nukleotide wurden anschließend mit 60 % Methanol extrahiert. Die extrahierten Nukleotide wurden mit alkalischer Phosphatase quantitativ zu AZT dephosphoryliert, da nur AZT, nicht jedoch die entsprechenden Nukleotide mit Hilfe eines Radioimmuno-Assays detektiert werden kann.
Die Konzentrationen an intrazellulärem AZT, die mit Hilfe des Radioimmuno-Assays bestimmt wurden, setzten sich dementsprechend aus der des AZT und den der AZT-Nukleotide zusammen. Eine separate Quantifizierung der Konzentrationen an AZT-MP, AZT-DP und AZT-TP wurde nicht durchgeführt.
Diese Experimente wurden an stimulierten humanen PBL durchgeführt.
Hierfür wurden Zellsuspensionen mit einer Dichte von 10^6 Zellen/ml mit 1 bzw. 10 µg AZT-DMDOPE/ml für 6 bzw. 24 h bei 37 °C und 5 % CO2 inkubiert.
Zur quantitativen Bestimmung von AZT wurde ein kommerzieller ^125J-AZT RIA Test-Kit verwendet. Puffer und Lösungen wurden gemäß den Angaben des Herstellers angesetzt und im Test-Kit eingesetzt. Die Reaktionsansätze wurden nach untenstehendem Schema (Tab. ) pipettiert, vorsichtig gemischt und für 2 h bei Raumtemperatur inkubiert. Anschließend wurden zur Präzipitation des Komplexes aus ^125J-AZT und des AZT-Antikörpers (aus Kaninchen) 500 µl des Ziege-Anti-Kaninchen-Antikörpers hinzugefügt. Die Ansätze wurden gemischt und erneut bei Raumtemperatur für 30 min inkubiert.

Series [1] concerns LCE (Lipid-Cleavage-Enzyme). Nature of the series: Enzymatic cleavage of AZT-DMDOPE, detection of cleavage products by thin-layer chromatography. The series is classed as biochemical. The conditions noted are these: 10 mg AZT-DMDOPE in 0,1 M Tris, 15 h + 6 h at 37 °C. On the procedure:
(§1) 10 mg (3'-Desoxy-3'-azidothymidin)-5'-phosphorsäure-(3-dodecyl-mercapto-2-decyl-oxy)-propylester (AZT-DMDOPE) werden in 0,5 ml 0,1 M Tris-Pufferlösung suspendiert und nach Zugabe des Enzyms (0,5 mg bei Phosphodiesterase und 0,1 mg bei Phospholipase/Nuclease) 15 Stunden bei 37 °C inkubiert. Anschließend wird die Lösung dünnschichtchromatographisch untersucht. Nach Zugabe von 5 Tropfen gesättigter NaHCO3-Lösung wurde weitere 6 Stunden bei 37 °C inkubiert und anschließend die Lösung dünnschichtchromatographisch untersucht.
(§2) Durch Dünnschichtchromatographie mit verschiedenen Elutionsmitteln wurde die Lösung hinsichtlich der Bildung der möglichen Spaltprodukte (AZT, AZT-monophosphat, DMDOP und Lipidmonophosphat) untersucht.
(§3) • a) Phospholipase C aus Bacillus cereus, 2000 U/0,5 ml, Boehringer Mannheim GmbH • b) Phospholipase D, Typ I, aus Kohl, 150 - 300 U/mg, Sigma • c) Phosphodiesterase aus Kalbsmilz, 2 U/mg, Boehringer Mannheim GmbH • d) Phosphodiesterase aus Schlangengift, Boehringer Mannheim GmbH • e) Nuclease aus Staphylococcus aureus, 15 000 U/mg, Boehringer Mannheim GmbH • f) LCE (Lipid-Cleavage-Enzyme)

Series [2] relates to Phospholipase D, Typ I, aus Kohl. Described as above. The series is classed as biochemical. The conditions noted are these: 10 mg AZT-DMDOPE in 0,1 M Tris, 0,1 mg enzyme, 15 h + 6 h at 37 °C; at the height of the lipid phosphate. As to the method:
as §1, §2, §3

The target of series [3] is T1, Phospholipase C aus Bacillus cereus (Bacillus cereus, UniProt P09598).
T1 construct: purchased Boehringer Mannheim GmbH
The description is as above. The conditions noted are these: 10 mg AZT-DMDOPE in 0,1 M Tris, 0,1 mg enzyme, 15 h + 6 h at 37 °C. The series is classed as biochemical. As to the method:
as §1, §2, §3

Series [4] deals with Phosphodiesterase aus Kalbsmilz. The description is as above. The class given is biochemical. As to conditions: 10 mg AZT-DMDOPE in 0,1 M Tris, 0,5 mg enzyme, 15 h + 6 h at 37 °C. As to the method:
as §1, §2, §3

Series [5] deals with T2, Nuclease aus Staphylococcus aureus (Staphylococcus aureus, UniProt P00644).
T2 construct: purchased Boehringer Mannheim GmbH
Described as above. As to conditions: 10 mg AZT-DMDOPE in 0,1 M Tris, 0,1 mg enzyme, 15 h + 6 h at 37 °C. The series is classed as biochemical. On the procedure: as §1, §2, §3

[6] abbreviates: 10 µg AZT-DMDOPE/ml, after 24 h.

T1 sequence (P09598 39-283 limits assumed): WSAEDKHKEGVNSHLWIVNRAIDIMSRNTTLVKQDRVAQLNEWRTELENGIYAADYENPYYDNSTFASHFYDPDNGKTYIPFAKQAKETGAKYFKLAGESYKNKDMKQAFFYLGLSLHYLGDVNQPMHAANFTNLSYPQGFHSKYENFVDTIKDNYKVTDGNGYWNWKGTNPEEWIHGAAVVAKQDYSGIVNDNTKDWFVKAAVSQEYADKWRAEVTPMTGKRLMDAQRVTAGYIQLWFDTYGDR

As to `CCCCCCCCCCCCSCC(COP(=O)(O)OC[C@H]1O[C@@H](n2cc(C)c(=O)[nH]c2=O)C[C@@H]1N=[N+]=[N-])OCCCCCCCCCC` (stereo partly drawn) [AZT-DMDOPE, (3'-Desoxy-3'-azidothymidin)-5'-phosphorsäure-(3-dodecyl-mercapto-2-decyloxy)-propylester], the “maximale intrazelluläre Konzentrationen an freiem AZT” value is recorded as 0.03 ng/10^6 Zellen in the series on stimulierten humanen PBL (1 µg AZT-DMDOPE/ml, after 6 h) and 0.15 ng/10^6 Zellen in the series on stimulierten humanen PBL (setting [6]). Also, the “maximale Konzentrationen an AZT und phosphorylierten AZT-Nukleotiden” value with stimulierten humanen PBL (1 µg AZT-DMDOPE/ml, after 24 h) was determined as 3.85 ng/10^6 Zellen; in the series on stimulierten humanen PBL (setting [6]), 6.41 ng/10^6 Zellen. Besides, in the series with stimulierten humanen PBL (1 bzw. 10 µg AZT-DMDOPE/ml, whole incubation time 1 - 24 h), the “intrazellulärer Spiegel an AZT und seiner Nukleotiden, Verlauf” value is on record as “stetig steigender”. In addition, the “intrazelluläre Spiegel im Vergleich zu AZT” value in the series with stimulierten humanen PBL (after 24 h incubation, equipotent concentrations) was “identisch”. Moreover, the “intrazelluläre Konzentrationen an AZT und AZT-Nukleotiden im Vergleich zur äquipotenten Konzentration an AZT” value with stimulierten humanen PBL (incubation time 18 - 48 h, further experiments) was “größer”. The “Fluoreszenzauslöschung DC” value was “positiv” in series [1]; “schwach” in series [2]; “negativ” in series [3]; “negativ” in series [4]; “negativ” in series [5].
